Test results from BindingDB's records for doi:10.1021/jm00051a006 (University of Alberta, 1995).

assay: Effective concentration in vitro against HIV-1-infected CEM cells relative to uninfected untreated controls

Structure (SMILES) | EC50
CC1(Br)C(=O)NC(=O)N([C@H]2C[C@H](N=[N+]=[N-])[C@@H](CO)O2)C1N=[N+]=[N-] (stereo partly specified) | 200000 nM
CO[C@@H]1N(C2CC(N=[N+]=[N-])C(CO)O2)C(=O)NC(=O)[C@@]1(C)Br (stereo partly specified) | 280 nM
CO[C@H]1N([C@H]2C[C@H](N=[N+]=[N-])[C@@H](CO)O2)C(=O)NC(=O)C1(C)Cl (stereo partly specified) | 5790 nM
CO[C@H]1N(C2CC(N=[N+]=[N-])C(CO)O2)C(=O)NC(=O)[C@]1(C)Br (stereo partly specified) | 3.27 nM
CC(C)O[C@H]1N(C2CC(N=[N+]=[N-])C(CO)O2)C(=O)NC(=O)[C@]1(C)Br (stereo partly specified) | 5720 nM
CCCCCCCCO[C@H]1N(C2CC(N=[N+]=[N-])C(CO)O2)C(=O)NC(=O)[C@]1(C)Br (stereo partly specified) | 865 nM
CC1(Cl)C(=O)NC(=O)N([C@H]2C[C@H](N=[N+]=[N-])[C@@H](CO)O2)C1N=[N+]=[N-] (stereo partly specified) | 1490 nM
CO[C@@H]1N(C2CC(N=[N+]=[N-])C(CO)O2)C(=O)NC(=O)[C@@]1(C)I (stereo partly specified) | 5.15 nM
CCO[C@H]1N(C2CC(N=[N+]=[N-])C(CO)O2)C(=O)NC(=O)[C@]1(C)Br (stereo partly specified) | 6.75 nM
CO[C@H]1N(C2CC(N=[N+]=[N-])C(CO)O2)C(=O)NC(=O)[C@]1(C)I (stereo partly specified) | 3.17 nM
CCO[C@@H]1N(C2CC(N=[N+]=[N-])C(CO)O2)C(=O)NC(=O)[C@@]1(C)Br (stereo partly specified) | 23.7 nM
